Data: US20250129031A1, “1,2,3-TRIAZOLE CARBONYL SULFONYLAMIDE COMPOUNDS AND USE THEREOF” (PI INDUSTRIES LTD., priority 2022, published 2025)

Tested on: Meloidogyne incognita
Test: Meloidogyne incognita test: gall rating on cucumber plants in pots after soil application
Type: in vivo
Design: key: 0: no galls; 1: very few small galls; 2: numerous small galls; 3: numerous small galls of which some are grown together; 4: numerous small and some big galls; 25% of roots severely galled; 6: 50% of roots severely galled; 75% of roots severely galled; 8: no healthy roots but plant is still green; 9: roots rotting and plant dying; 10: plant and roots dead
Settings: 1000 ppm applied to soil inoculated with 5000 eggs & J2s; cucumber seedlings; rated 30 days after application; 0-10 scale (Zeck 1971); untreated check up to 8
Experimental: Meloidogyne incognita Test:
The trial pots were filled with soil containing a mixture of sand:soil:cocopeat in a ratio of 1:1:1. To the soil of each pot 5 mL of a nematode suspension (Meloidogyne incognita, mix of 5000 eggs & J2s) was added. One hour later the respective test compound at the stated concentration was applied to each pot. 10 days old cucumber seedlings were transplanted into the pots one day after the application. The cucumber plants were allowed to grow at a temperature of 27° C. under greenhouse conditions. The evaluation of the gall rating was recorded 30 days after the application. The plants were carefully uprooted and the roots were thoroughly washed. The gall rating was done on a 0-10 scale as described by Zeck (1971) and shown below: • 0=no galls • 1=very few small galls • 2=numerous small galls • 3=numerous small galls of which some are grown together • 4=numerous small and some big galls • 5=25% of roots severely galled • 6=50% of roots severely galled • 7=75% of roots severely galled • 8=no healthy roots but plant is still green • 9=roots rotting and plant dying • 10=plant and roots dead

| SMILES | gall rating scale |
| --- | --- |
| O=C(NS(=O)(=O)c1cc(Cl)ccc1Cl)c1cn(-c2cc(Cl)cc(Cl)c2)nn1 [Compound 2, 1-(3,5-dichlorophenyl)-N-((2,5-dichlorophenyl)sulfonyl)-1H-1,2,3-triazole-4-carboxamide] | 4 |
| Cc1c(C(=O)NS(=O)(=O)c2ccccc2Cl)nnn1-c1cc(Cl)cc(Cl)c1 [Compound 7, N-((2-chlorophenyl)sulfonyl)-1-(3,5-dichlorophenyl)-5-methyl-1H-1,2,3-triazole-4-carboxamide] | 4 |
| Cc1c(C(=O)NS(=O)(=O)c2cc(Cl)ccc2Cl)nnn1-c1cc(Cl)cc(Cl)c1 [Compound 8, 1-(3,5-dichlorophenyl)-N-((2,5-dichlorophenyl)sulfonyl)-5-methyl-1H-1,2,3-triazole-4-carboxamide] | 4 |
| Cc1c(C(=O)NS(=O)(=O)c2ccccc2OC(F)(F)F)nnn1-c1cc(Cl)cc(Cl)c1 [Compound 17] | 4 |
| Cc1c(C(=O)NS(=O)(=O)c2ccc(F)cc2)nnn1-c1cc(Cl)cc(Cl)c1 [Compound 25] | 4 |
| Cc1c(C(=O)NS(=O)(=O)c2cc(C(F)(F)F)ccc2Cl)nnn1-c1ccc(Cl)cc1Cl [Compound 33] | 4 |
| O=C(NS(=O)(=O)c1ccccc1)c1nnn(-c2cc(Cl)cc(Cl)c2)c1C(F)(F)F [Compound 35, 1-(3,5-dichlorophenyl)-N-(phenylsulfonyl)-5-(trifluoromethyl)-1H-1,2,3-triazole-4-carboxamide] | 4 |
| O=C(NS(=O)(=O)c1c(F)cccc1F)c1nnn(-c2ccc(Cl)cc2C(F)(F)F)c1C(F)(F)F [Compound 52] | 4 |
| COc1ccc(Cl)c(S(=O)(=O)NC(=O)c2nnn(-c3ccc(Cl)cc3Cl)c2C)c1 [Compound 56] | 4 |
| COc1ccc(Cl)c(S(=O)(=O)NC(=O)c2nnn(-c3ccc(Cl)cc3C(F)(F)F)c2C(F)(F)F)c1 [Compound 57] | 4 |
| COc1ccc(Cl)c(S(=O)(=O)NC(=O)c2nnn(-c3ccc(Cl)cc3C(F)(F)F)c2C)c1 [Compound 61] | 4 |
| O=C(NS(=O)(=O)c1cc(C(F)(F)F)ccc1Cl)c1nnn(-c2ccc(C(F)(F)F)cc2Cl)c1C(F)(F)F [Compound 76] | 4 |
| Cc1c(C(=O)NS(=O)(=O)c2ccccc2F)nnn1-c1cc(Cl)cc(C(F)(F)F)c1 [Compound 96] | 4 |
| Cc1c(C(=O)NS(=O)(=O)c2c(F)cc(F)cc2F)nnn1-c1cc(Cl)cc(C(F)(F)F)c1 [Compound 97] | 4 |
| COc1ccc(Cl)c(S(=O)(=O)NC(=O)c2nnn(-c3cc(C(F)(F)F)cc(C(F)(F)F)c3)c2C)c1 [Compound 108] | 4 |
| Cc1c(C(=O)NS(=O)(=O)c2ccccc2C(F)(F)F)nnn1-c1ccc(OC(F)(F)F)cc1Cl [Compound 132] | 4 |
| COc1ccc(Cl)c(S(=O)(=O)NC(=O)c2nnn(-c3ccc(OC(F)(F)F)cc3Cl)c2C)c1 [Compound 133] | 4 |
| Cc1c(C(=O)NS(=O)(=O)c2cc(Cl)ccc2Cl)nnn1-c1ccc(OC(F)(F)F)cc1Cl [Compound 134, 1-(2-chloro-4-(trifluoromethoxy)phenyl)-N-((2,5-dichlorophenyl)sulfonyl)-5-methyl-1H-1,2,3-triazole-4-carboxamide] | 4 |
| Cc1c(C(=O)NS(=O)(=O)c2cc(C(F)(F)F)ccc2Cl)nnn1-c1ccc(OC(F)(F)F)cc1Cl [Compound 135] | 4 |
| Cc1c(C(=O)NS(=O)(=O)c2cc(F)cc(F)c2)nnn1-c1ccc(OC(F)(F)F)cc1Cl [Compound 140] | 4 |
| Cc1c(C(=O)NS(=O)(=O)c2ccccc2F)nnn1-c1ccc(OC(F)(F)F)cc1Cl [Compound 143] | 4 |
| Cc1c(C(=O)NS(=O)(=O)c2cc(Cl)ccc2F)nnn1-c1ccc(OC(F)(F)F)cc1Cl [Compound 168, N-((5-chloro-2-fluorophenyl)sulfonyl)-1-(2-chloro-4-(trifluoromethoxy)phenyl)-5-methyl-1H-1,2,3-triazole-4-carboxamide] | 4 |
| O=C(NS(=O)(=O)c1cc(C(F)(F)F)ccc1Cl)c1nnn(-c2ccc(OC(F)(F)F)cc2Cl)c1C(F)(F)F [Compound 171, 1-(2-chloro-4-(trifluoromethoxy)phenyl)-N-((2-chloro-5-(trifluoromethyl)phenyl)sulfonyl)-5-(trifluoromethyl)-1H-1,2,3-triazole-4-carboxamide] | 4 |
| O=C(NS(=O)(=O)c1ccccc1C(F)(F)F)c1nnn(-c2ccc(Cl)cc2Cl)c1C(F)(F)F [Compound 209] | 4 |
| O=C(NS(=O)(=O)c1cc(C(F)(F)F)ccc1Cl)c1nnn(-c2ccc(Cl)cc2Cl)c1C(F)(F)F [Compound 210] | 4 |

| SMILES | gall rating scale |
| --- | --- |
| Cc1ccc(C)c(S(=O)(=O)NC(=O)c2nnn(-c3ccc(OC(F)(F)F)cc3Cl)c2C)c1 [Compound 217] | 4 |
| O=C(NS(=O)(=O)c1ccc(F)cc1F)c1nnn(-c2ccc(Cl)cc2Cl)c1C(F)(F)F [Compound 218] | 4 |
| O=C(NS(=O)(=O)c1cc(C(F)(F)F)ccc1Cl)c1nnn(-c2ccc(OC(F)(F)F)cc2Cl)c1C1CC1 [Compound 227, 1-(2-chloro-4-(trifluoromethoxy)phenyl)-N-((2-chloro-5-(trifluoromethyl)phenyl)sulfonyl)-5-cyclopropyl-1H-1,2,3-triazole-4-carboxamide] | 4 |
| O=C(NS(=O)(=O)c1ccccc1C(F)(F)F)c1nnn(-c2ccc(OC(F)(F)F)cc2Cl)c1C1CC1 [Compound 228] | 4 |
| O=C(NS(=O)(=O)c1cc(Cl)ccc1Cl)c1nnn(-c2ccc(OC(F)(F)F)cc2Cl)c1C1CC1 [Compound 229, 1-(2-chloro-4-(trifluoromethoxy)phenyl)-5-cyclopropyl-N-((2,5-dichlorophenyl)sulfonyl)-1H-1,2,3-triazole-4-carboxamide] | 4 |
| COc1ccc(Cl)c(S(=O)(=O)NC(=O)c2nnn(-c3ccc(OC(F)(F)F)cc3Cl)c2C2CC2)c1 [Compound 230, 1-(2-chloro-4-(trifluoromethoxy)phenyl)-N-((2-chloro-5-methoxyphenyl)sulfonyl)-5-cyclopropyl-1H-1,2,3-triazole-4-carboxamide] | 4 |
| CCc1c(C(=O)NS(=O)(=O)c2cc(C(F)(F)F)ccc2Cl)nnn1-c1ccc(Cl)cc1Cl [Compound 231] | 4 |
| Cc1c(C(=O)NS(=O)(=O)c2cc(C(F)(F)F)ccc2F)nnn1-c1ccc(Cl)cc1Cl [Compound 240] | 4 |
| Cc1c(C(=O)NS(=O)(=O)c2ccccc2C(F)(F)F)nnn1-c1ccc(Cl)cc1Cl [Compound 241] | 4 |
| COc1ccc(Cl)c(S(=O)(=O)NC(=O)c2nnn(-c3ccc(F)cc3Cl)c2C)c1 [Compound 242] | 4 |
| Cc1c(C(=O)NS(=O)(=O)c2ccccc2C(F)(F)F)nnn1-c1ccc(F)cc1Cl [Compound 245] | 4 |
| Cc1c(C(=O)NS(=O)(=O)c2ccccc2F)nnn1-c1ccc(F)cc1Cl [Compound 246] | 4 |
| Cc1c(C(=O)NS(=O)(=O)c2cc(Cl)c(F)cc2F)nnn1-c1ccc(F)cc1Cl [Compound 250] | 4 |
| Cc1c(C(=O)NS(=O)(=O)c2cc(C(F)(F)F)ccc2Cl)nnn1-c1ccc(F)cc1Cl [Compound 252, 1-(2-chloro-4-fluorophenyl)-N-((2-chloro-5-(trifluoromethyl)phenyl)sulfonyl)-5-methyl-1H-1,2,3-triazole-4-carboxamide] | 4 |
| Cc1c(C(=O)NS(=O)(=O)c2cc(C(F)(F)F)ccc2Cl)nnn1-c1cc(Cl)cc(Cl)c1 [Compound 253] | 4 |
| Cc1c(C(=O)NS(=O)(=O)c2ccccc2C(F)(F)F)nnn1-c1cc(Cl)cc(Cl)c1 [Compound 254] | 4 |
| Cc1c(C(=O)NS(=O)(=O)c2ccccc2C(F)(F)F)nnn1-c1cc(Cl)ccc1Cl [Compound 259, 1-(2,5-dichlorophenyl)-5-methyl-N-((2-(trifluoromethyl)phenyl)sulfonyl)-1H-1,2,3-triazole-4-carboxamide] | 4 |
| COc1ccc(Cl)c(S(=O)(=O)NC(=O)c2nnn(-c3ccc(C#N)cc3Cl)c2C)c1 [Compound 260] | 4 |
| Cc1c(C(=O)NS(=O)(=O)c2cc(C(F)(F)F)ccc2Br)nnn1-c1ccc(Cl)cc1Cl [Compound 261] | 4 |
| Cc1c(C(=O)NS(=O)(=O)c2cc(F)ccc2F)nnn1-c1ccc(C#N)cc1Cl [Compound 269] | 4 |
| Cc1c(C(=O)NS(=O)(=O)c2ccccc2C(F)(F)F)nnn1-c1ccc(C#N)cc1Cl [Compound 271] | 4 |
| Cc1c(C(=O)NS(=O)(=O)c2ccccc2Cl)nnn1-c1ccc(C#N)cc1Cl [Compound 272] | 4 |
| Cc1c(C(=O)NS(=O)(=O)c2ccccc2F)nnn1-c1ccc(Cl)cc1Cl [Compound 278, 1-(2,4-dichlorophenyl)-N-((2-fluorophenyl)sulfonyl)-5-methyl-1H-1,2,3-triazole-4-carboxamide] | 4 |
| Cc1c(C(=O)NS(=O)(=O)c2ccc(F)cc2F)nnn1-c1ccc(Cl)cc1Cl [Compound 279, 1-(2,4-dichlorophenyl)-N-((2,4-difluorophenyl)sulfonyl)-5-methyl-1H-1,2,3-triazole-4-carboxamide] | 4 |
